{"source": "paper PMC7325174", "about": "(bioRxiv, 2020)", "key": {"Vero E6 cells": {"test_system": "Vero E6 cells", "details": "parallel plates"}, "SARS-CoV-2": {"test_system": "SARS-CoV-2", "type": "cell-based"}}}
{"smiles": "Cc1nc2ccc(Br)cc2c(-c2ccc(Cl)cc2)c1C(OC(C)(C)C)C(=O)O", "note": "(centres unmarked) [ALLINI-2]", "values": [{"measurement": "compound cytotoxicity (in words)", "setting": "Vero E6 cells", "result": "without apparent cytotoxicity"}, {"measurement": "effect on SARS-CoV-2 viral RNA in supernatants / replication (in words)", "setting": "SARS-CoV-2", "result": "modestly inhibited"}]}
{"smiles": "CCOC(=O)[C@H]1O[C@@H]1C(=O)N[C@@H](CC(C)C)C(=O)NCCC(C)C", "note": "[E64D]", "values": [{"measurement": "compound cytotoxicity (in words)", "setting": "Vero E6 cells", "result": "minimal cytotoxicity"}, {"measurement": "effect on SARS-CoV-2 viral RNA in supernatants / replication (in words)", "setting": "SARS-CoV-2", "result": "substantially decreased"}, {"measurement": "potency at 48 hpi compared with 24 hpi (in words)", "setting": "SARS-CoV-2", "result": "less potent"}, {"measurement": "IC50", "setting": "SARS-CoV-2; read-out: IC50, SARS-CoV-2 viral RNA in supernatants", "result": 3.3, "unit": "µM"}]}
{"smiles": "CC(C)CN(C[C@@H](O)[C@H](Cc1ccccc1)NC(=O)O[C@H]1CCOC1)S(=O)(=O)c1ccc(N)cc1", "note": "[amprenavir]", "values": [{"measurement": "compound cytotoxicity (in words)", "setting": "Vero E6 cells", "result": "without apparent cytotoxicity"}, {"measurement": "effect on SARS-CoV-2 viral RNA in supernatants / replication (in words)", "setting": "SARS-CoV-2", "result": "modestly inhibited"}]}
{"smiles": "Cc1cccc(/C=N/Nc2cc(N3CCOCC3)nc(OCCc3ccccn3)n2)c1", "note": "[apilimod]", "values": [{"measurement": "compound cytotoxicity (in words)", "setting": "Vero E6 cells", "result": "minimal cytotoxicity"}, {"measurement": "effect on SARS-CoV-2 viral RNA in supernatants / replication (in words)", "setting": "SARS-CoV-2", "result": "substantially decreased"}, {"measurement": "potency at 48 hpi compared with 24 hpi (in words)", "setting": "SARS-CoV-2", "result": "less potent"}]}
{"smiles": "Cc1ccnc2c1NC(=O)c1cccnc1N2C1CC1", "note": "[nevirapine]", "values": [{"measurement": "compound cytotoxicity (in words)", "setting": "Vero E6 cells", "result": "without apparent cytotoxicity"}, {"measurement": "effect on SARS-CoV-2 viral RNA in supernatants / replication (in words)", "setting": "SARS-CoV-2", "result": "modestly inhibited"}]}
{"smiles": "CCC(CC)COC(=O)[C@H](C)N[P@](=O)(OC[C@H]1O[C@@](C#N)(c2ccc3c(N)ncnn23)[C@H](O)[C@@H]1O)Oc1ccccc1", "note": "[remdesivir]", "values": [{"measurement": "effect on SARS-CoV-2 viral RNA in supernatants / replication (in words)", "setting": "SARS-CoV-2", "result": "substantially decreased"}]}
